Paper PMC7179450, “Primary Human Hepatocytes, But not HepG2 or Balb/c 3T3 Cells, Efficiently Metabolize Salinomycin and Are Resistant to Its Cytotoxicity” (Molecules, 2020)
Where two headings read alike, the source gives them in different places.

Columns and labels:
[1] = test system: Balb/c 3T3 cells; experiment: LDH leakage assay in Balb/c 3T3; assay type: cell-based; details: Mus musculus, BALB/c3T3, Balb/c 3T3, LDH, mean ± SEM, n = 3, read-out: EC50 (effective concentration)
Procedure: (§1) The HepG2 cell line was purchased from the American Type Culture Collection (ATCC® HB-8065™). The cells were cultured in Minimum Essential Medium Eagle (MEME) (Sigma–Aldrich Co. (St. Louis, MO, USA)). Normal murine embryonic fibroblasts, Balb/c 3T3 clone A31 cell line (gift from Department of Swine Diseases of the National Veterinary Research Institute in Pulawy) was cultured in Dulbecco’s Modified Eagle’s Medium (DMEM) (Invitrogen Corporations (Paisley, UK)). The media were supplemented with 10% BCS (Balb/c 3T3), 10% FBS (HepG2), 1% L-glutamine, and 1% antibiotic solution. The cells were maintained in 75 cm^2 cell culture flasks in humidified incubator at 37 °C, in an atmosphere of 5% CO2. […] The initial cell viability was determined with the trypan blue exclusion test. […]
The concentration ranges of the drugs were chosen according to their solubility and their plasma level. […] The cytotoxicity was assessed after 24 and 48 h of exposure of cell lines or after 12 and 24 h exposure of PHH. […]
The integrity of the plasma membrane was assessed through the test of lactate dehydrogenase (LDH) release, which was monitored using a commercially available Cytotoxicity Detection Kit (LDH) (Roche Diagnostics, Basel, Switzerland). […] The absorbance was measured at 492 nm in a microplate reader using a blank as a reference.

[2] = test system: HepG2 cells; experiment: Biotransformation of SAL and metabolites in HepG2 (LC-MS/MS); assay type: in vitro ADME, human; details: HepG2, only after induction with prednisolone, 24 h (Figure 2C)
Procedure: as §1
(§2) The medium samples from microplate wells were collected for identifying SAL metabolites and normalized to a cell number. An aliquot of 200 µL of each sample was measured to Eppendorf tube. […] The dry residue was reconstituted in 50% acetonitrile and analyzed with LC-MS/MS. […]
(§3) SAL (m/z 773.4 to m/z 431.3) was monitored in multiple reaction monitoring (MRM) modes. […]
(§4) The signals for further analysis were selected with the LightSight 2.3 software. […] These MRM transitions (with 20 chromatographic peaks) were then quantified with Multiquant 2.1. software. Quantitative analysis was performed for SAL. […]

[3] = test system: Balb/c 3T3 fibroblasts; experiment: Biotransformation of SAL and metabolites in Balb/c 3T3 fibroblasts (LC-MS/MS); assay type: in vitro ADME, mouse; details: 24 h (Figure 2B)
Procedure: as §1, §2, §3, §4

[4] = test system: turkeys; details: cited from earlier work
[5] = test system: humans; details: accidental poisoning: nausea, photophobia, limb weakness, tachycardia, muscle pain, mild rhabdomyolysis with myoglobinuria; cited from earlier work

Compound: CC[C@@H](C(=O)[C@@H](C)[C@@H](O)[C@H](C)[C@@H]1O[C@@H]([C@@H](CC)C(=O)O)CC[C@@H]1C)[C@H]1O[C@]2(C=C[C@@H](O)[C@]3(CC[C@@](C)([C@H]4CC[C@](O)(CC)[C@H](C)O4)O3)O2)[C@H](C)C[C@@H]1C [SAL, salinomycin]
- EC50 ([1]; 24 h exposure): > 25 µg/mL
- EC50 ([1]; 48 h exposure): 23.1 ± 0.8 µg/mL
- percentage of SAL metabolised [2]: ca. 20%
- biotransformation of SAL [3]: no biotransformation
- LD50 [4]: 0.6 mg/kg b.w.
- toxicity in a human [5]: severe toxicity
